# Laboratory results taken from patent publication US20250248993A1, “CAMPTOTHECIN DERIVATIVES THAT BIND TO DDX5 PROTEIN AND PRODRUGS THEREOF” (priority 2022, published 2025).
# Like-named read-outs stand apart in the source and are kept apart here.
# Columns and labels:
# [1] = test system: survivin, cIAP2, Mcl-1, and XIAP; assay: Western blot, expression inhibition of anti-apoptotic proteins in FaDu cell line; assay type: cell-based; conditions: FaDu, 0, 10, 100 nM, 24 hours
# [2] = dose more than 10 times higher than a clinically applicable dose; cited from earlier work
# various cancer lines = conditions: cited from earlier work
# DDX5 = DDX5 (Homo sapiens, UniProt P17844); assay: Western blot, DDX5 degradation in FaDu and A549 cell lines; assay type: cell-based; parameters: endogenous in cells; host or cells: FaDu, A549; conditions: FaDu and A549, 0, 10, 100 nM
# [3] = mouse, in vivo
# [4] = Lactone to carboxylate form conversion at pH 7.4; assay type: physicochemical; conditions: pH 7.4, 37° C.
# Description: Subsequently, it was centrifuged under conditions of 4° C., 2 minutes, and 13000 RCF, and a supernatant was used as a sample.
# The column used was a Cortecs C18 2.7 μm, 4.6×50 mm column, and analysis was conducted under the following conditions: 1) 20 min: 5% B, 2) sample injection, 3) 2 min: 5% B, 4) 10 min: 5% B→50% B, and 5) 1 min: 50% B.
# To measure changes over time, a sample chamber was maintained at 37° C. and a sample was set to be injected at each measurement time. The measurement time was set to 0, 20, 40, 60, 90, 120, 180, 240, 300, 360, 480, 600, and 720 minutes.
# The content of each of lactone and carboxylate was calculated from the peak area thereof. Since the absorption coefficients of lactone and carboxylate are different, the lactone area was obtained by multiplying the carboxylate area by the equation below.
# in vivo = conditions: NOD SCID, mouse, 1 mg/kg, Plasma Concentration
# FaDu cell line = assay: Cell viability assay (CellTiter-Glo), FaDu cell line; assay type: cell-based; conditions: FaDu not expressing ABCG2, 3 days
# Description: After 24 hours, the cells were treated with 100 μL of each drug at nine different concentrations (⅕ serial dilutions from 1000 nM). […] Here, a control (drug concentration: 0) that was not treated with a drug was also prepared. The cells were cultured (37° C., 5% CO2) for 3 or 6 days. 100 μL of the CellTiter-Glo reagent (using the CellTiter-Glo® Luminescent Cell Viability Assay kit (Promega, G7571)) was added to each well and pipetted. After incubating at room temperature (RT) for 10 minutes, luminescence was measured.
# Sequence of DDX5 (P17844 whole entry): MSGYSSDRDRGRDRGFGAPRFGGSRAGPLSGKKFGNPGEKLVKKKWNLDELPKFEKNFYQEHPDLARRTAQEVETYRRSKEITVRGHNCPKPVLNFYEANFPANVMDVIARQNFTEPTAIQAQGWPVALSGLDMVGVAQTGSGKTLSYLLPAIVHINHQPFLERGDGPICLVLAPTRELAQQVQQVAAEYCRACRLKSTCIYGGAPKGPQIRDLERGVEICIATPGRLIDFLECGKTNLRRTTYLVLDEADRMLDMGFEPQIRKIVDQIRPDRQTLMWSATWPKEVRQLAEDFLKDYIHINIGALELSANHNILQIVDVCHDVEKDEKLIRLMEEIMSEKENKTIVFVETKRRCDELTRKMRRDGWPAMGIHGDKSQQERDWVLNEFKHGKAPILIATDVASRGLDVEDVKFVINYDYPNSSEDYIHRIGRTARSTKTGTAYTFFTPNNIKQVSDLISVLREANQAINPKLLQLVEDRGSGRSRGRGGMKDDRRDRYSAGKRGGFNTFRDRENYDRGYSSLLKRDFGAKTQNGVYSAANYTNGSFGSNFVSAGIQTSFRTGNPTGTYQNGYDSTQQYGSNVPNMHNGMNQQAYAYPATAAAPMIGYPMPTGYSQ
smiles,measurement,setting,value
"CC[C@@]1(O)C(=O)OCc2c1cc1n(c2=O)Cc2c-1nc1cc3c(c4c1c2[C@@H](N)CC4)OCO3 (single isomer, unassigned) [PBX-7011]","expression of anti-apoptotic proteins (survivin, cIAP2, Mcl-1, XIAP)",[1],decreased as the concentration increased
CC[C@@]1(O)C(=O)OCc2c1cc1n(c2=O)Cc2c-1nc1ccccc1c2CCNC(C)C [CKD-602],adverse drug reactions,[2],"no adverse drug reactions, except an increase in gastric juice secretion"
CC[C@@]1(O)C(=O)OCc2c1cc1n(c2=O)Cc2c-1nc1cc(F)c(C)c3c1c2[C@@H](NC(=O)CO)CC3 [Dxd],cytotoxicity / activity relative to SN-38,various cancer lines,approximately 10 times
"CC[C@@]1(O)C(=O)OCc2c1cc1n(c2=O)Cc2c-1nc1cc(F)c(C)c3c1c2[C@@H](N)CC3 [Exatecan, reference compound]","expression of anti-apoptotic proteins (survivin, cIAP2, Mcl-1, XIAP)",[1],strongly inhibit the expression of an anti-apoptotic protein
"CC[C@@]1(O)C(=O)OCc2c1cc1n(c2=O)Cc2cc3cc4c(cc3nc2-1)OCO4 [FL118, reference compound]",DDX5 degradation / inhibition,DDX5,superior to other substances
same,"expression of anti-apoptotic proteins (survivin, cIAP2, Mcl-1, XIAP)",[1],strongly suppresses the expression of an anti-apoptotic protein
same,IC50,various cancer lines; majority of 140 cell lines originating from various cancer types,< 0.1 µM
CC[C@@]1(O)C(=O)OCc2c1cc1n(c2=O)Cc2c-1nc1cc3c(c4c1c2[C@@H](NC(=O)CO)CC4)OCO3 [PBX-7014],"expression of anti-apoptotic proteins (survivin, cIAP2, Mcl-1, XIAP)",[1],decreased as the concentration increased
CC[C@@]1(O)C(=O)OCc2c1cc1n(c2=O)Cc2c-1nc1cc3c(c4c1c2[C@@H](NC(=O)[C@@H](C)O)CC4)OCO3 [PBX-7016],DDX5 degradation / inhibition,DDX5,inhibited DDX5 in a concentration-dependent manner
same,"expression of anti-apoptotic proteins (survivin, cIAP2, Mcl-1, XIAP)",[1],decreased as the concentration increased
same,clearance from the blood,[3],cleared from the blood very quickly
same,conversion from lactone form to carboxylate form,[4],more rapidly and at a higher rate than other reference compounds
same,concentration at 0.167 h,"in vivo; ip, Mean",0.164 µg/mL
same,concentration at 1 h,"in vivo; ip, Mean",0.0161 µg/mL
same,concentration at 0.167 h,"in vivo; ip, individual mice",0.158 µg/mL
same,concentration at 0.167 h,"in vivo; iv, Mean",0.0593 µg/mL
same,concentration at 1 h,"in vivo; iv, Mean",0.0069 µg/mL
same,concentration at 0.167 h,"in vivo; iv, individual mice",0.0762 µg/mL
CC[C@@]1(O)C(=O)OCc2c1cc1n(c2=O)Cc2c-1nc1cc3c(c4c1c2[C@@H](NC(=O)[C@@H](O)C1CC1)CC4)OCO3 [PBX-7024],apoptotic efficacy (cell viability),FaDu cell line,potent apoptotic efficacy
CCc1c2c(nc3ccc(O)cc13)-c1cc3c(c(=O)n1C2)COC(=O)[C@]3(O)CC [SN-38],IC50,various cancer lines; several cell lines,nanomolar range
